Experimental data as given in BindingDB's records for doi:10.1074/jbc.272.51.31949 (Schering-Plough Research Institute, 1997).
Where a SMILES comes first, the peptide text is derived from it. [ ]: non-standard residue; d: D form.

Experiments:
Galanin receptor type 3 = target: T1, Galanin receptor type 3 (Rattus norvegicus, UniProt O88626)
T1 sequence (O88626 whole entry): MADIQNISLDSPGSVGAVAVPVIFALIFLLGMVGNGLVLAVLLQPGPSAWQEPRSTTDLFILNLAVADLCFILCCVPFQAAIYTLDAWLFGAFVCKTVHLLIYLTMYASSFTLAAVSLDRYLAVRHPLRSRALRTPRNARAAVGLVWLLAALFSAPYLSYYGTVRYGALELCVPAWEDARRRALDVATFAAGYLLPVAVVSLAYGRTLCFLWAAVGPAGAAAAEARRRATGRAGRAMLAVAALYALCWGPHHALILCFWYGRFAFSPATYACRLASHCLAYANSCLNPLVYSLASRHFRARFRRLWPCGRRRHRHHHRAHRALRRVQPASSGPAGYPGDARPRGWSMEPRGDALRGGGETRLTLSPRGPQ

Galanin receptor type 2 = target: T2, Galanin receptor type 2 (Rattus norvegicus, UniProt O08726)
T2 sequence (O08726 whole entry): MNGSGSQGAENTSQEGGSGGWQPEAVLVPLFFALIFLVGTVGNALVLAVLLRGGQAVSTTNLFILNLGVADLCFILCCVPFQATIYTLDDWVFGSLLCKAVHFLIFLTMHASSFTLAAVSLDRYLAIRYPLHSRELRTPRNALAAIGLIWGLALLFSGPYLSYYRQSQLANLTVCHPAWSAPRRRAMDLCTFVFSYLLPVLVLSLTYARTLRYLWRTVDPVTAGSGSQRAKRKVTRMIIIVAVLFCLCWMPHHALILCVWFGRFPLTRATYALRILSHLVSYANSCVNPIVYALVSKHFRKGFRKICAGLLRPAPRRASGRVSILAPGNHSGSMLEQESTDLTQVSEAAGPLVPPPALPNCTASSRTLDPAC

Molecule	Ki (Galanin receptor type 3) [µM]	Ki (Galanin receptor type 2) [µM]
CC(C)C[C@H](NC(=O)[C@H](CC(C)C)NC(=O)[C@H](Cc1ccc(O)cc1)NC(=O)CNC(=O)[C@H](C)NC(=O)[C@H](CO)NC(=O)[C@H](CC(N)=O)NC(=O)[C@H](CC(C)C)NC(=O)[C@@H](NC(=O)[C@H](Cc1c[nH]c2ccccc12)NC(=O)CN)[C@@H](C)O)C(=O)NCC(=O)N1CCC[C@H]1C(=O)N1CCC[C@H]1C(=O)N1CCC[C@H]1C(=O)NCC(=O)N[C@@H](Cc1ccccc1)C(=O)N[C@@H](CO)C(=O)N1CCC[C@H]1C(=O)N[C@@H](Cc1ccccc1)C(=O)N[C@@H](CCCN=C(N)N)C(N)=O	0.0075	–
CCC(C)C(NC(=O)C(C)NC(=O)C(Cc1cnc[nH]1)NC(=O)C1CCCN1C(=O)CNC(=O)C(CC(C)C)NC(=O)C(CC(C)C)NC(=O)C(Cc1ccc(O)cc1)NC(=O)CNC(=O)C(C)NC(=O)C(CO)NC(=O)C(CC(N)=O)NC(=O)C(CC(C)C)NC(=O)C(NC(=O)C(Cc1c[nH]c2ccccc12)NC(=O)CN)C(C)O)C(=O)NC(CC(=O)O)C(=O)NC(CC(N)=O)C(=O)NC(Cc1cnc[nH]1)C(=O)NC(CCCN=C(N)N)C(=O)NC(CO)C(=O)NC(Cc1ccccc1)C(=O)NC(CO)C(=O)NC(CC(=O)O)C(=O)NC(CCCCN)C(=O)NC(Cc1cnc[nH]1)C(=O)NCC(=O)NC(CC(C)C)C(=O)NC(C(=O)NCC(N)=O)C(C)O (stereo unspecified) [CAS_132699-74-2]	> 1	–
CC(C)C[C@H](NC(=O)[C@H](CC(C)C)NC(=O)[C@@H](Cc1c[nH]c2ccccc12)NC(=O)[C@H](Cc1ccccc1)NC(=O)[C@@H](Cc1c[nH]c2ccccc12)NC(=O)[C@H](CCC(N)=O)NC(=O)[C@H](CCC(N)=O)NC(=O)[C@@H]1CCCN1C(=O)[C@H](CCCCN)NC(=O)[C@@H]1CCCN1C(=O)[C@@H](CCCNC(=N)N)NC(=O)[C@@H]1CCCN1C(=O)CNC(=O)[C@H](CC(C)C)NC(=O)[C@H](CC(C)C)NC(=O)[C@H](Cc1ccc(O)cc1)NC(=O)CNC(=O)[C@H](C)NC(=O)[C@H](CO)NC(=O)[C@H](CC(N)=O)NC(=O)[C@H](CC(C)C)NC(=O)[C@@H](NC(=O)[C@H](Cc1c[nH]c2ccccc12)NC(=O)CN)[C@@H](C)O)C(N)=O [Gal(1-13)-Std I] (H-GWTLNSAGYLLGP[dR]PKPQQ[dW]F[dW]LL-NH2)	0.00075	–
CC(C)C[C@H](NC(=O)[C@H](CC(C)C)NC(=O)[C@@H](Cc1c[nH]c2ccccc12)NC(=O)[C@@H](Cc1c[nH]c2ccccc12)NC(=O)[C@H](C)NC(=O)[C@H](NC(=O)[C@H](CC(N)=O)NC(=O)[C@H](CC(C)C)NC(=O)[C@@H](NC(=O)[C@H](Cc1c[nH]c2ccccc12)NC(=O)CN)[C@@H](C)O)[C@H](C)O)C(=O)NCC(=O)N1CCC[C@H]1C(=O)N[C@@H](Cc1cnc[nH]1)C(=O)N[C@@H](C)CO [Gal-(1-15)-ol,[d-Thr6,d-Trp8,9]]	1	–
CC(C)C[C@H](NC(=O)[C@H](CC(C)C)NC(=O)[C@H](Cc1ccc(O)cc1)NC(=O)[C@@H](Cc1c[nH]c2ccccc12)NC(=O)[C@H](C)NC(=O)[C@H](C)NC(=O)[C@H](CC(N)=O)NC(=O)[C@H](CC(C)C)NC(=O)[C@@H](NC(=O)[C@H](Cc1c[nH]c2ccccc12)NC(=O)CN)[C@@H](C)O)C(=O)NCC(=O)N1CCC[C@H]1C(=O)N[C@@H](Cc1cnc[nH]1)C(=O)N[C@@H](C)CO [Galanin (1-15)-ol,[Ala6,D-trp8]]	0.0179	–
CC[C@H](C)[C@H](NC(=O)[C@H](C)NC(=O)[C@H](Cc1c[nH]cn1)NC(=O)[C@@H]1CCCN1C(=O)CNC(=O)[C@H](CC(C)C)NC(=O)[C@H](CC(C)C)NC(=O)[C@H](Cc1ccc(O)cc1)NC(=O)CNC(=O)[C@H](C)NC(=O)[C@H](CO)NC(=O)[C@H](CC(N)=O)NC(=O)[C@H](CC(C)C)NC(=O)[C@@H](N)[C@@H](C)O)C(=O)N[C@@H](CC(=O)O)C(=O)N[C@@H](CC(N)=O)C(=O)N[C@@H](Cc1c[nH]cn1)C(=O)N[C@@H](CCCNC(=N)N)C(=O)N[C@@H](CO)C(=O)N[C@@H](Cc1ccccc1)C(=O)N[C@@H](CO)C(=O)N[C@@H](CC(=O)O)C(=O)N[C@@H](CCCCN)C(=O)N[C@@H](Cc1c[nH]cn1)C(=O)NCC(=O)N[C@@H](CC(C)C)C(=O)N[C@H](C(N)=O)[C@@H](C)O [Galanin (3-29), rat]	1	–
CC[C@H](C)[C@H](NC(=O)[C@H](C)NC(=O)[C@H](Cc1c[nH]cn1)NC(=O)[C@@H]1CCCN1C(=O)CNC(=O)[C@H](CC(C)C)NC(=O)[C@H](CC(C)C)NC(=O)[C@H](Cc1ccc(O)cc1)NC(=O)CNC(=O)[C@H](C)NC(=O)[C@H](CO)NC(=O)[C@H](CC(N)=O)NC(=O)[C@H](CC(C)C)NC(=O)[C@@H](NC(=O)[C@@H](N)Cc1c[nH]c2ccccc12)[C@@H](C)O)C(=O)N[C@@H](CC(=O)O)C(=O)N[C@@H](CC(N)=O)C(=O)N[C@@H](Cc1c[nH]cn1)C(=O)N[C@@H](CCCNC(=N)N)C(=O)N[C@@H](CO)C(=O)N[C@@H](Cc1ccccc1)C(=O)N[C@@H](CO)C(=O)N[C@@H](CC(=O)O)C(=O)N[C@@H](CCCCN)C(=O)N[C@@H](Cc1c[nH]cn1)C(=O)NCC(=O)N[C@@H](CC(C)C)C(=O)N[C@H](C(N)=O)[C@@H](C)O [Galanin Porcine 2-29]	0.0126	0.00192
CC[C@H](C)[C@H](NC(=O)[C@H](C)NC(=O)[C@H](Cc1cnc[nH]1)NC(=O)[C@@H]1CCCN1C(=O)CNC(=O)[C@H](CC(C)C)NC(=O)[C@H](CC(C)C)NC(=O)[C@H](Cc1ccc(O)cc1)NC(=O)CNC(=O)[C@H](C)NC(=O)[C@H](CO)NC(=O)[C@H](CC(N)=O)NC(=O)[C@H](CC(C)C)NC(=O)[C@@H](NC(=O)[C@H](Cc1c[nH]c2ccccc12)NC(=O)CN)[C@@H](C)O)C(=O)N[C@@H](CC(=O)O)C(=O)N[C@@H](CC(N)=O)C(=O)N[C@@H](Cc1cnc[nH]1)C(N)=O [Galanin rat]	0.00625	0.0047
H-ELEPEDEARPGGFDRLQSQDKAIRTIMEFLAFLHLKEAGAL-NH2 [GMAP (1-41)]	1	–
H-GWTLNSAGYLLGPPPALALA-NH2 [M40]	0.054	0.00288
H-LLGPHAIDNHRSFSDKHGLT-NH2 [Galanin (10-29), rat]	1	–
H-LPGLPSAASSEDAGQS-NH2 [CAS_125455-59-6]	> 1	1
